# Values quoted from earlier work, collected in patent US6716459B2, “Composition for inhibiting increase of blood sugar level or lowering blood sugar level” (priority 1998, dated 2004).
# System: Ehrlich Ascites Tumour Cells
# Details: in vitro, Chem. Pharm. Bull. 41(12) 2129-2131 (1993)
smiles,measurement,value
C[C@H]1[C@H](C)CC[C@]2(C(=O)O)CC[C@]3(C)C(=CC[C@@H]4[C@@]5(C)C[C@@H](O)[C@H](O)C(C)(C)[C@@H]5CC[C@]43C)[C@H]12 [corosolic acid],activity on the mobility of grape sugar,activates the mobility of grape sugar
